Measurements: patent US5534498A, “Trypsin inhibitors” (Corvas International, Inc., priority 1993, dated 1996)
Residues, ends and D or L forms follow the SMILES beside them. *: point of attachment. Boc = CC(C)(C)OC(=O)*

What was measured:
Format in all cases: biochemical
[1] = target: T1, Factor VIIa:rTF complex (Homo sapiens, UniProt P08709); test: Factor VIIa assay (S-2288 substrate); settings: for Calculated % Selectivity VIIa: [IC50 for Trypsin/IC50 for other enzyme]×100, lower = more trypsin selective
T1 construct: 2.5 ml 400 nMhuman Factor VIIa
Description: (§1) The specificity of the peptide aldehydes (8 through 12) was determined in vitro by measurement of their IC50 against other enzymes involved in hemostasis. A specific concentration of enzyme and its substrate were challenged with varying concentrations of inhibitor. IC50 is that concentration of inhibitor giving 50% inhibition of substrate turnover, under the assay conditions. Specific assay procedures used are presented below.
(§2) 96-well microtiter plates were prepared for use in these assays by incubating each well with 300 μL 1% bovine serum albumin (in deionized water) for 30 minutes at 37° C., then washing three times with deionized water.
Enzyme activity was determined using as substrate, S-2288 [D-isoleucyl-L-prolyl-L-arginine-p-nitroanilide dihydrochloride], purchased from Kabi Diagnostica. The substrate was made up in deionized water prior to use.
Both solutions were then incubated for 30 minutes at room temperature before use in the assay.
The assay was run by combining in appropriate wells 50 μL inhibitor in TBS or TBS alone and 100 μL of Factor VIIa:rTF complex or background control, incubating this mixture for 30 minutes at room temperature, adding 50 μL of 2 mM S-2288, incubating for an additional 30 to 60 minutes at room temperature, then reading the absorbance of the wells at 405 nm on a microtiter plate reader set with background substraction at 650 nm.

[2] = target: T2, human kallekrein (Homo sapiens, UniProt P03952); test: Kallikrein assay (S-2302 substrate); settings: for IC50: 30 min preincubation, room temperature, tested 0.025-25 μM, Inact. = no inhibition at highest concentration; for Calculated % Selectivity Kallikrein: [IC50 for Trypsin/IC50 for other enzyme]×100, lower = more trypsin selective
T2 construct: 50 μL of 4 to 9 nM human kallekrein
Description: as §1, with “IC50 is that concentration of inhibitor giving 50% inhibition of substrate turnover, under the assay conditions.” left out
as §2
(§3) The substrate was made up in deionized water prior to use.

[3] = target: T3, Activated human Protein C (Homo sapiens, UniProt P04070); test: Protein C assay (Pefachrome PC substrate); settings: for Calculated % Selectivity Protein C: [IC50 for Trypsin/IC50 for other enzyme]×100, lower = more trypsin selective
T3 construct: from tissue
Description: as §1, with “IC50 is that concentration of inhibitor giving 50% inhibition of substrate turnover, under the assay conditions.” left out
as §2
Enzyme activity was determined using as substrate, Pefachrome PC [δ-carbobenzoloxy-D-lysyl-L-prolyl-L-arginine-p-nitroanilide], purchased from Centerchem, Inc. The substrate was made up in deionized water prior to use. Protac used to activate Protein C was obtained from American Diagnostics.

[4] = target: T4, human Factor XIa (Homo sapiens, UniProt P03951); test: Factor XIa assay (S-2366 substrate); settings: for IC50: 30 min preincubation, room temperature, tested 0.025-25 μM, Inact. = no inhibition at highest concentration; for Calculated % Selectivity XIa: [IC50 for Trypsin/IC50 for other enzyme]×100, lower = more trypsin selective
T4 construct: 50 μL of 5 nM human Factor XIa
Description: as §1, with “IC50 is that concentration of inhibitor giving 50% inhibition of substrate turnover, under the assay conditions.” left out
as §2, §3

[5] = target: recombinant tissue plasminogen activator (Homo sapiens, UniProt P00750); test: Tissue plasminogen activator assay (S-2288 substrate); settings: for Calculated % Selectivity tPA: [IC50 for Trypsin/IC50 for other enzyme]×100, lower = more trypsin selective
Description: as §1, with “IC50 is that concentration of inhibitor giving 50% inhibition of substrate turnover, under the assay conditions.” left out
as §2, §3

[6] = target: plasmin (Homo sapiens, UniProt P00747); test: Plasmin assay (S-2251 substrate); parameters: 50 μL 25 nM human plasmin; settings: for IC50: 30 min preincubation, room temperature, tested 0.025-25 μM, Inact. = no inhibition at highest concentration; for Calculated % Selectivity Plasmin: [IC50 for Trypsin/IC50 for other enzyme]×100, lower = more trypsin selective
Description: as §1, with “IC50 is that concentration of inhibitor giving 50% inhibition of substrate turnover, under the assay conditions.” left out
as §2, §3

[7] = target: T5, bovine thrombin (Bos taurus, UniProt P00735); test: Thrombin assay (S-2238 substrate); settings: for IC50: 30 min preincubation, room temperature, tested 0.025-25 μM, Inact. = no inhibition at highest concentration; for Calculated % Selectivity Thrombin: [IC50 for Trypsin/IC50 for other enzyme]×100, lower = more trypsin selective
T5 construct: 50 μL 20 nM bovine thrombin
Description: as §1, §2
Enzyme activity was determined using as substrate, S-2238 [D-phenylalanyl-L-pipecolyl-L-arginine-p-nitroanilide dihydrochloride], purchased from Kabi Diagnostica. The substrate was made up in deionized water prior to use.
(§4) The assay was run by combining in appropriate wells 50 μL TBS and 50 μL inhibitor in TBS or TBS alone and 50 μL 20 nM bovine thrombin (or TBS as background control), incubating this mixture for 30 minutes at room temperature, adding 50 μL 1 mM S-2238, incubating for an additional 30 minutes at room temperature, then reading the absorbance of the wells at 405 nm on a microtiter plate reader set with background substraction at 650 nm.

[8] = target: T6, human urokinase (Homo sapiens, UniProt P00749); test: Urokinase assay (S-2444 substrate); settings: for IC50: 30 min preincubation, room temperature, tested 0.025-25 μM, Inact. = no inhibition at highest concentration; for Calculated % Selectivity UK: [IC50 for Trypsin/IC50 for other enzyme]×100, lower = more trypsin selective
T6 construct: 50 μL of 270 U/mL human urokinase
Description: as §1, §2
Enzyme activity was determined using as substrate S-2444 [L-pyroglutamyl-L-glycyl-L-arginine-p-nitroanilide hydrochloride], purchased from Kabi Diagnostica. The substrate was made up in deionized water prior to use.
as §4, with “μL” for “μL TBS and 50 μL”, “of 270 U/mL human urokinase” for “20 nM bovine thrombin”, “control) and 50 μL TBS,” for “control),”, “S-2444,” for “S-2238,”

[9] = target: T7, human Factor Xa (Homo sapiens, UniProt P00742); test: Factor Xa assay (Pefachrome Xa substrate); settings: for Calculated % Selectivity Xa: [IC50 for Trypsin/IC50 for other enzyme]×100, lower = more trypsin selective
T7 construct: 50 μL 30 nM human Factor Xa
Description: as §1, with “IC50 is that concentration of inhibitor giving 50% inhibition of substrate turnover, under the assay conditions.” left out
as §2
Enzyme activity was determined using as substrate, Pefachrome Xa [N-methoxycarbonyl-D-cyclohexylalanyl-L-glycyl-L-arginine p-niroanilide acetate], purchased from Centerchem, Inc. The substrate was made up in deionized water prior to use.

[10] = target: T8, bovine trypsin (Bos taurus, UniProt P00760); test: Trypsin assay, IC50 (S-2222 substrate); settings: for IC50: 30 min preincubation, room temperature, tested 0.025-25 μM; for Calculated % Selectivity Trypsin: trypsin relative to itself (reference, 100 by definition)
T8 sequence (P00760 24-246): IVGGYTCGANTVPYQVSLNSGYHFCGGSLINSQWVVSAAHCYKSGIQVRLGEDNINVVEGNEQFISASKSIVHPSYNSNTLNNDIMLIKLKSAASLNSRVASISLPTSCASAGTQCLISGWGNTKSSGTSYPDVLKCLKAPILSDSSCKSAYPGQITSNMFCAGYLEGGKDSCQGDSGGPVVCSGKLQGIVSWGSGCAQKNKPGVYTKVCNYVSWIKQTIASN
Description: as §1, with “IC50 is that concentration of inhibitor giving 50% inhibition of substrate turnover, under the assay conditions.” left out
as §2, §3

[11] = target: bovine and human pancreatic trypsin; test: Potency: determination of inhibitor constant Ki against trypsin (S-2222 substrate, Dixon plot); settings: 37° C., TBS pH 7.4, 15 min preincubation, read-out: Ki For Peptide Aldehydes Against Trypsin
Description: The potency and specificity of the compounds of the present invention are determined by in vitro assay methods well known in the art. […] Specifically, the inhibitor constant, Ki, of the compounds can be determined by the method of Dixon, Biochem. J. 55:170 (1953). The specificity is assessed by determination of the concentration, IC50, of compound required to give 50% inhibition of the enzymatic activity of the coagulation enzymes, kallikrein, factor XIa, factor VIIa, factor Xa, thrombin; the fibrinolysis enzymes, plasmin, tissue plasminogen activator (tPA), and urokinase (UK), and the anticoagulation enzyme, protein C. Specificity is found when the concentration of compound giving 50% inhibition of trypsin is low relative to the concentration required to give like inhibition of the other enzymes.
Enzyme activity was determined using as substrate S-2222 [N-benzoyl-L-isoleucyl-L-glutamyl-glycyl-L-arginine-p-nitroanilide hydrochloride where glutamyl side chain is 50% carboxylic acid and 50% methyl ester], purchased from Kabi Diagnostica. The substrate was made up in deionized water prior to use.
A 96-well microtiter plate was prepared for use in the assay by incubating each well with 300 μL of 1% bovine serum albumin (in deionized water) for 30 minutes at 37° C., and washing three times with deionized water.
To each well was added 50 μL TBS (0.1M Tris, 0.14M NaCl, pH 7.4), 50 μL 2.5 nM trypsin and 50 μL peptide aldehyde in TBS or TBS alone. After incubating for 15 minutes at 37° C., 50 μL of S-2222 (at 37° C.) at a specified concentration was added to each well. After mixing, the rate of substramte turnover at 37° C. was measured for 30 minutes at 405 nm (generation of p-nitroaniline). The initial S-2222 concentrations in the assay mixture were 0.45, 0.23, 0.11, 0.056, and 0.028 mM.
Ki was determined graphically using a Dixon plot, as described in Dixon, Biochem. J. 55:170 (1953).

[12] = 30 min preincubation, room temperature, tested 0.025-25 μM, Inact. = no inhibition at highest concentration

T1 sequence (P08709 213-466 limits assumed): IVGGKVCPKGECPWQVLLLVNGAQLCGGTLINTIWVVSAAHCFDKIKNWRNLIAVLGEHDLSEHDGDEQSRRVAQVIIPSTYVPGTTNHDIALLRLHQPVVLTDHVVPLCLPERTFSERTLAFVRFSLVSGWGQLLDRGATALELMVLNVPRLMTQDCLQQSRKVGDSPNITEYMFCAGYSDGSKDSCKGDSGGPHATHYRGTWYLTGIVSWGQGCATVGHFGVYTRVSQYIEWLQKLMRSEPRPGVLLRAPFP
T1 sequence (P08709 61-212 partner limits assumed): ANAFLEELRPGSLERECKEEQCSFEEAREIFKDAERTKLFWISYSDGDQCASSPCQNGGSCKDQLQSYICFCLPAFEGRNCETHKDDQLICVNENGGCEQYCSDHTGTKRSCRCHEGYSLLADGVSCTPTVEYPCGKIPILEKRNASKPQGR
T1 sequence (P13726 33-295 partner): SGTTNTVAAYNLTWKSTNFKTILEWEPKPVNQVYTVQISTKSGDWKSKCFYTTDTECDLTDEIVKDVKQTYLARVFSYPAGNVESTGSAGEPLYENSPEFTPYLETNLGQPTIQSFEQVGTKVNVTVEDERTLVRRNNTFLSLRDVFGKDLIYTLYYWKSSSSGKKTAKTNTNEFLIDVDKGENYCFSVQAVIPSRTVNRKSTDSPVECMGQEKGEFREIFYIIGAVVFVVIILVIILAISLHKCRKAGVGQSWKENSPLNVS
T4 sequence (P03951 388-625 limits assumed): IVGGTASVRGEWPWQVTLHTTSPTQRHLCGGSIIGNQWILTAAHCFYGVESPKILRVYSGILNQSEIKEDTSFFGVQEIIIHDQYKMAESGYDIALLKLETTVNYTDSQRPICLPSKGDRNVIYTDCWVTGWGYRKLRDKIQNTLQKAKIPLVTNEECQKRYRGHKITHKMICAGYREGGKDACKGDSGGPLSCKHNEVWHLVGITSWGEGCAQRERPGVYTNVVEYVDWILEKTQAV
T4 sequence (P03951 19-387 partner limits assumed): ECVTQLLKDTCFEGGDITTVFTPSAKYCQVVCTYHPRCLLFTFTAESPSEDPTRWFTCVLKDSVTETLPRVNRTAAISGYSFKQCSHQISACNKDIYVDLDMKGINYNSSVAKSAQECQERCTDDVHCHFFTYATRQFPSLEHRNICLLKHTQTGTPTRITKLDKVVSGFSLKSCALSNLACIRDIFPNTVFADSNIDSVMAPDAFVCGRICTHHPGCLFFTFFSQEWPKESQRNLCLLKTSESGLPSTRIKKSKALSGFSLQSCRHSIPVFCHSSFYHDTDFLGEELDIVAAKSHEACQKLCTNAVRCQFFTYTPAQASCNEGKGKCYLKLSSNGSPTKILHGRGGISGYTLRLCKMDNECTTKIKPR
plasmin, sequence (P00747 581-810 limits assumed): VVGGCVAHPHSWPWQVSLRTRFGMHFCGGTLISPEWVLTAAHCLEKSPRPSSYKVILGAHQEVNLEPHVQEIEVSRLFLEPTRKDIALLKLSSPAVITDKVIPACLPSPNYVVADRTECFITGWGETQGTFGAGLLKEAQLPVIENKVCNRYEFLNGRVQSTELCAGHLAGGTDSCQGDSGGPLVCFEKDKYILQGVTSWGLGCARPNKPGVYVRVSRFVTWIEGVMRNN
plasmin, sequence (P00747 97-580 partner limits assumed): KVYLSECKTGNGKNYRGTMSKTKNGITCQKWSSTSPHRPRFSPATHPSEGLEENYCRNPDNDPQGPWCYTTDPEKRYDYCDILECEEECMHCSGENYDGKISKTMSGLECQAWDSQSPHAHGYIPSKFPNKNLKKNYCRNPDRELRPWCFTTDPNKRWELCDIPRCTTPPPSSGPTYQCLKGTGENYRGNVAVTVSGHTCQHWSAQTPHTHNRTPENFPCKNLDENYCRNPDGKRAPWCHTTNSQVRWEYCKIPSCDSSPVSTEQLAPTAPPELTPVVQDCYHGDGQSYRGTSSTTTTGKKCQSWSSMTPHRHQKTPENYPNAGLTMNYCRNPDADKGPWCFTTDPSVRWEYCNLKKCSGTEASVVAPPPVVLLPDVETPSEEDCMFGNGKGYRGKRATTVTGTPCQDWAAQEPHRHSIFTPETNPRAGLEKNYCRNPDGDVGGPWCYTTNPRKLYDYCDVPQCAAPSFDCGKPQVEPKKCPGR
T2 sequence (P03952 391-638 limits assumed): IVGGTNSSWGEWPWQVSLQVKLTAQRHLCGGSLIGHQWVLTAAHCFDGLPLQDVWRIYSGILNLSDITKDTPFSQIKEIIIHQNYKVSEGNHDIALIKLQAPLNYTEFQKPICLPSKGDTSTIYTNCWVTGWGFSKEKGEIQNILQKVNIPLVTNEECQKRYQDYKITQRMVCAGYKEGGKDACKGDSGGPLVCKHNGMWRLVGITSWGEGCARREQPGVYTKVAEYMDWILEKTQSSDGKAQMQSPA
T2 sequence (P03952 20-390 partner limits assumed): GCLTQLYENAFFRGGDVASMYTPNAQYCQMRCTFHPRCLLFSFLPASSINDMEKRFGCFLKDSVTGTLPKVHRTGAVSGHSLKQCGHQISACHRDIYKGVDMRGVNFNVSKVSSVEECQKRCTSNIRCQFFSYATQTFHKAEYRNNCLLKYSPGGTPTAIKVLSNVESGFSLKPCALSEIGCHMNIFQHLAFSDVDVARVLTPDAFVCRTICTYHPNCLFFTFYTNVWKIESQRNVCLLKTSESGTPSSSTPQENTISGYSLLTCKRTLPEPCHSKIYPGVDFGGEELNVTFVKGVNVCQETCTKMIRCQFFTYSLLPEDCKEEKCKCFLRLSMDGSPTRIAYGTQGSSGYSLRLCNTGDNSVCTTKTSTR
recombinant tissue plasminogen activator, sequence (P00750 36-562): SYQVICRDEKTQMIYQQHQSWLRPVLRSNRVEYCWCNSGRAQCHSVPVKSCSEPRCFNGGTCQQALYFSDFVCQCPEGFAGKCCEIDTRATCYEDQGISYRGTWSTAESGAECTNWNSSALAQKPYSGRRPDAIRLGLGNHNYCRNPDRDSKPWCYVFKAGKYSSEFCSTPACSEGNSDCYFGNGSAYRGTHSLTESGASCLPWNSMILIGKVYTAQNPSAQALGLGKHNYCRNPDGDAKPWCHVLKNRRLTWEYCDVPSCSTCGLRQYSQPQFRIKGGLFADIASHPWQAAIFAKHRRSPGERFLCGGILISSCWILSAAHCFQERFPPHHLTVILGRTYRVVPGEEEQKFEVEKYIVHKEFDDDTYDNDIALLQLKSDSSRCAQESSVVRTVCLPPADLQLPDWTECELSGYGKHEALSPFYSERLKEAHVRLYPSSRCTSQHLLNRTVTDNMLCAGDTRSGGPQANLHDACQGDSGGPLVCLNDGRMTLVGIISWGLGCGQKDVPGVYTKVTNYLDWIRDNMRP
T3 sequence (P04070 212-461 limits assumed): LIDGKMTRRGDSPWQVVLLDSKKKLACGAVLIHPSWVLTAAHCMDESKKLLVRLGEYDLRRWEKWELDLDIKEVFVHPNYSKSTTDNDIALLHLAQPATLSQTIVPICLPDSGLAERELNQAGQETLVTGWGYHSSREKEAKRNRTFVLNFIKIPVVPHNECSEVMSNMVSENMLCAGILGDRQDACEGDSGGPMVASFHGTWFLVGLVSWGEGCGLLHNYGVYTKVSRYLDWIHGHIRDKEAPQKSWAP
T3 sequence (P04070 43-197 partner limits assumed): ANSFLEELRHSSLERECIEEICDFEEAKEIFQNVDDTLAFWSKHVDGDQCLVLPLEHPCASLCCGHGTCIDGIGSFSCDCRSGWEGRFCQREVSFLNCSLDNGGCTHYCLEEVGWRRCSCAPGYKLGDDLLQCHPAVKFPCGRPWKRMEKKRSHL
T7 sequence (P00742 235-488 limits assumed): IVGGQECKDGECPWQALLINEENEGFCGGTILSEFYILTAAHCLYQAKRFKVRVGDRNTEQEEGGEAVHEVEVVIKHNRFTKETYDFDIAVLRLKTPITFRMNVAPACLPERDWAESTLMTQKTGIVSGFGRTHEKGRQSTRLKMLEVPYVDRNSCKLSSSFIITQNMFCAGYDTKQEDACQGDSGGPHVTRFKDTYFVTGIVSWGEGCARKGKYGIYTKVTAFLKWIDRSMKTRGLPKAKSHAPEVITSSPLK
T7 sequence (P00742 41-179 partner limits assumed): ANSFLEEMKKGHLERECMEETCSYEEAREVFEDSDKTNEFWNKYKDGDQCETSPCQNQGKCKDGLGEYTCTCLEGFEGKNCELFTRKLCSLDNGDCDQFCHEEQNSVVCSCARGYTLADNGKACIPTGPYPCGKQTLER

Row | IC50 [1, 12] [µM] | Calculated % Selectivity VIIa [1] [%] | IC50 [2] [µM] | Calculated % Selectivity Kallikrein [2] [%] | Calculated % Selectivity Protein C [3] [%] | IC50 [4] [µM] | Calculated % Selectivity XIa [4] [%] | Calculated % Selectivity tPA [5] [%] | IC50 [6] [µM] | Calculated % Selectivity Plasmin [6] [%] | IC50 [7] [µM] | Calculated % Selectivity Thrombin [7] [%] | IC50 [8] [µM] | Calculated % Selectivity UK [8] [%] | Calculated % Selectivity Xa [9] [%] | IC50 [10] [µM] | Calculated % Selectivity Trypsin [10] [%] | Ki [11] [µM] | IC50 [3, 12] [µM] | IC50 [5, 12] [µM] | SMILES | also measured
1 | > 25 | < 0.02 | 6 | 0.10 | 0 | 4 | 0.15 | 0 | 0.6 | 1 | 14 | 0.04 | 9 | 0.07 | 0 | 0.006 | 100 | 0.0014 |  |  | CC(C)(C)OC(=O)N[C@@H](CCC(=O)O)C(=O)N1CCC[C@H]1C(=O)N[C@H](C=O)CCCNC(=N)N [Compound 8, N-t-butyloxycarbonyl-L-Glu-L-Pro-L-argininal] (Boc-Glu-Pro-Arg-aldehyde) | IC50 Protein C [3, 12]: Inact.; IC50 tPA [5, 12]: Inact.; IC50 Xa [9, 12]: Inact.
2 |  | 0 | 8 | < 0.3 | < 0.1 | 13 | < 0.19 | < 0.1 | 1.2 | < 2 | 9 | < 0.28 | > 25 | < 0.1 | < 1.3 | < 0.025 | 100 |  | > 25 | > 25 | CC(C)COC(=O)NC(CC(=O)O)C(=O)N1CCCC1C(=O)NC(C=O)CCCN=C(N)N [Compound 10, N-isobutyloxycarbonyl-L-Asp-L-Pro-L-argininal] | IC50 VIIA [1, 12]: Inact.; IC50 [9, 12]: 2 µM
3 | > 25 | < 0.1 | 2 | < 1.3 | < 0.1 | 6 | < 0.42 | < 0.1 | 1.1 | < 2 | 10 | < 0.25 | 19 | < 0.1 | < 0.83 | < 0.025 | 100 | 0.0002 | > 25 | > 25 | N=C(N)NCCC[C@@H](C=O)NC(=O)[C@@H]1CCCN1C(=O)[C@H](CC(=O)O)NC(=O)OC12CC3CC(CC(C3)C1)C2 [Compound 11, N-adamantyloxycarbonyl-L-AsP-L-Pro-L-argininal] | IC50 [9, 12]: 0.3 µM
